Assay results as given in patent publication US20240246950A1, “Anilino-Pyrazole Derivatives, Compositions and Methods Thereof” (Ensem Therapeutics, priority 2022, published 2024).
Read-outs that look alike come from different tables or passages of the source.

What was measured:
[1] = biological target: CDK2/CycA2 (Homo sapiens, UniProt P24941); experiment: In vitro kinase TR-FRET assay CDK2/CycA2; assay type: biochemical; conditions: enzyme 3 nM, ATP 27 μM, read-out: CDK2 cyclinA2 activity assay: IC50
Procedure: (§1) In vitro kinase TR-FRET assays: CDK2/CycA2, CDK2/CycE1, CDK1/cyclinB and GSK3β
(§2) The test compounds were prepared as 10 mM stock solution in 100% DMSO. The stock solution was then serially diluted 3-fold in 100% DMSO to 10 concentrations. 200 nL of each diluted compound solution was transferred to 384-well plate in duplicate. To each well, 5 uL of enzyme and ATP mixture solution containing enzyme CDK2/CycA2, CDK2/CycE1, CDK1/cyclinB, or GSK30 (final concentrations 3 nM, 0.6 nM, 0.3 nM, 0.6 nM, respectively) and ATP (final concentrations 27 μM, 82 μM, 56 μM, 7.6 μM, respectively) in the assay buffer (50 mM HEPES, pH7.5, 10 mM MgCl2, 1 mM DTT, 0.01% BSA, 0.01% Triton X-100). For negative control, 5 uL of assay buffer was added instead. The plate was incubated at room temperature for 10 min. 5 uL of peptide solution containing ULight-4E-BP1 peptide (final concentrations 50 nM) in the assay buffer was subsequently added into each well to initiate the reaction. By incubation at room temperature for 1 hour, 10 uL of 2 nM Eu-anti-phospho-4E BP1 antibody was then added for detection. After one hour incubation at room temperature, all samples were subjected to read the TR-FRET signal on Envision with excitation at 340 nm and emission fluorescence at 615 nm and 665 nm. IC50 values were then calculated by plotting dose-response curves and then using the XLfit application in Excel software.

[2] = test system: OVCAR3; experiment: Cell proliferation (CyQUANT) OVCAR3; assay type: cell-based; conditions: OVCAR3, 7 days, read-out: Anti-proliferation assay: IC50 (nM) [Cell Line: OVCAR3]
Procedure: (§3) Cancer cell lines, namely, OVCAR3, TOV21G were seeded onto 96 well cell culture plates at a density of 2500, 1000 or 3000 cells/well, respectively and cultured overnight. Cells treated with test compounds at 3-fold dose titration for 7 days at maximum final DMSO concentration of 0.01%. The CyQUANT® Cell Proliferation Assay, a highly sensitive fluorescence-based method for quantifying cells and assessing cell proliferation and cytotoxicity was employed, following manufacturer's procedure (ThermnoFisher, Cataloge #C35012). Plates were scanned with a laser-based Acumen Cellistra instrument by TTP LabTech at Ex/Em 480/520 nm. % Inhibition is calculated based on DMSO control wells on the same plate (ie, DMSO wells have 100% growth and 0% growth inhibition).

[3] = biological target: CDK2/CycE1 (Homo sapiens, UniProt P24941); experiment: In vitro kinase TR-FRET assay CDK2/CycE1; assay type: biochemical; conditions: enzyme 0.6 nM, ATP 82 μM, read-out: CDK2 cyclinE1 activity assay: IC50
Procedure: as §1, §2

[4] = test system: TOV21G; experiment: Cell proliferation (CyQUANT) TOV21G; assay type: cell-based; conditions: 7 days, read-out: Anti-proliferation assay: IC50 (nM) [Cell Line: TOV21G]
Procedure: as §3

[5] = biological target: GSK3β (Homo sapiens, UniProt P49841); experiment: In vitro kinase TR-FRET assay GSK3β; assay type: biochemical; conditions: enzyme 0.6 nM, ATP 7.6 μM
Procedure: as §1, §2

[6] = biological target: CDK1/cyclinB (Homo sapiens, UniProt P06493); experiment: In vitro kinase TR-FRET assay CDK1/cyclinB; assay type: biochemical; conditions: enzyme 0.3 nM, ATP 56 μM
Procedure: as §1, §2

Sequence of GSK3β (P49841 whole entry, species assumed): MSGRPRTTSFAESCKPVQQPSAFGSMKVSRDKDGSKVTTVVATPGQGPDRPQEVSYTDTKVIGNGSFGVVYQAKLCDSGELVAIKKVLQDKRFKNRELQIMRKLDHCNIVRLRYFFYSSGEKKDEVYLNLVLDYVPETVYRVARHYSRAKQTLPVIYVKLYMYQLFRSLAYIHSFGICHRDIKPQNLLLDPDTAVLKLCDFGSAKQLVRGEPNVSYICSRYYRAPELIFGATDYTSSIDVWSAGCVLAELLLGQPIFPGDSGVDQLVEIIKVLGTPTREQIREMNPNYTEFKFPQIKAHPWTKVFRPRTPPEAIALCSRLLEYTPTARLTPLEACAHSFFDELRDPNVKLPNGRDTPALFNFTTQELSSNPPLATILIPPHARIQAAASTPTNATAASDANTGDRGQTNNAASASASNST
Sequence of CDK1/cyclinB (P06493 whole entry): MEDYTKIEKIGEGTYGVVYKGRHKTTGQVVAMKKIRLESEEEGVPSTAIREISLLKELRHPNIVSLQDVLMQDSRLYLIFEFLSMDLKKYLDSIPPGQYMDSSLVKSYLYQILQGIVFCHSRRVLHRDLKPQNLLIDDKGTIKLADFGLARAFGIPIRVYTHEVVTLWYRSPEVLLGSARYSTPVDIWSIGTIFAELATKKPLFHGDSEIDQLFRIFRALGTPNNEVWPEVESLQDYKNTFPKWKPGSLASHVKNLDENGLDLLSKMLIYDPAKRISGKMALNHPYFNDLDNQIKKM
Sequence of CDK1/cyclinB (P14635 whole entry partner): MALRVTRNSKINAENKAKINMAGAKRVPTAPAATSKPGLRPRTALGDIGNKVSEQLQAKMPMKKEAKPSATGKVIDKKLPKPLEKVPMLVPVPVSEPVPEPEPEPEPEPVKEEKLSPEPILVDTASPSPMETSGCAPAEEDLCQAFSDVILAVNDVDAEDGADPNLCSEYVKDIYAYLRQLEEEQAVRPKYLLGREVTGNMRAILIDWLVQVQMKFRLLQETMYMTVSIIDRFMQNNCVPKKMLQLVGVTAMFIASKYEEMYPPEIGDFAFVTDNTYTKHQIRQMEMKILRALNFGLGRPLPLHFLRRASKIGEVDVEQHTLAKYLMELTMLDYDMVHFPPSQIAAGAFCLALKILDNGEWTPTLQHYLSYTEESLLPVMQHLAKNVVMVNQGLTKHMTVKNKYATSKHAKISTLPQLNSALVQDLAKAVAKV

Row | IC50 [1] [nM] | IC50 ([2]; Homo sapiens, OVCAR-3, 168 h) [nM] | IC50 [3] [nM] | IC50 [5] [nM] | IC50 [6] [nM] | IC50 [2] [nM] | SMILES | IC50 ([4]; Homo sapiens, 168 h) [nM] | IC50 [4] [nM]
1 | < 50 |  | < 50 | > 1000 | 50 to 500 | ≤ 500 | CC(C)NC(=O)O[C@H]1CC[C@@H](c2cc(Nc3ccc4c(c3)CNS4(=O)=O)n[nH]2)CC1 [Example 7, (1s,4s)-4-{3-[(1,1-dioxo-2,3-dihydro-1λ^6,2-benzothiazol-5-yl)amino]-1H-pyrazol-5-yl}cyclohexyl N-(propan-2-yl)carbamate] |  | ≥ 1000
2 | < 50 | ≤ 500 | < 50 | 50 to 500 | < 50 |  | CC(C)(C)NC(=O)O[C@@H]1CC[C@H](c2cc(Nc3nccc4c3CCS4(=O)=O)n[nH]2)C1 [Example 68, (1R,3S)-3-(3-((1,1-dioxido-2,3-dihydrothieno[3,2-c]pyridin-4-yl)amino)-1H-pyrazol-5-yl)cyclopentyl tert-butylcarbamate] | ≤ 500 | 
3 | < 50 | ≤ 500 | < 50 | 50 to 500 | < 50 |  | CC(C)NC(=O)O[C@@H]1CC[C@H](c2cc(Nc3ccc(F)c4c3CNS4(=O)=O)[nH]n2)C1 [Example 66, (1R,3S)-3-(5-((7-fluoro-1,1-dioxido-2,3-dihydrobenzo[d]isothiazol-4-yl)amino)-1H-pyrazol-3-yl)cyclopentyl isopropylcarbamate] | ≥ 1000 | 
4 | < 50 | ≤ 500 | < 50 | 500 to 1000 | 50 to 500 |  | CC(C)NC(=O)O[C@@H]1CC[C@H](c2cc(Nc3ccc4c(c3)CC(F)(F)C4)n[nH]2)C1 [Example 32, (1R,3S)-3-(3-((2,2-difluoro-2,3-dihydro-1H-inden-5-yl)amino)-1H-pyrazol-5-yl)cyclopentyl isopropylcarbamate] | ≥ 1000 | 
5 | < 50 | ≤ 500 | < 50 | < 50 | < 50 |  | CC(C)NC(=O)O[C@H]1C[C@@H](c2cc(Nc3nccc4c3CCS4(=O)=O)n[nH]2)C1 [Example 70, (1s,3s)-3-(3-((1,1-dioxido-2,3-dihydrothieno[3,2-c]pyridin-4-yl)amino)-1H-pyrazol-5-yl)cyclobutyl isopropylcarbamate] | ≤ 500 | 
6 | < 50 | ≤ 500 | < 50 | 50 to 500 | 50 to 500 |  | CC(C)NC(=O)O[C@@H]1CC[C@H](c2cc(Nc3cccc4c3CCN(C)S4(=O)=O)[nH]n2)C1 [Example 56, (1R,3S)-3-{5-[(2-methyl-1,1-dioxo-3,4-dihydro-2H-1λ6-benzo[2,1-e][1,2]thiazin-5-yl)amino]-1H-pyrazol-3-yl}cyclopentyl (prop-2-ylamino)methanoate] | ≥ 1000 | 
7 | < 50 | ≤ 500 | < 50 | 50 to 500 | 50 to 500 |  | Cc1ccc(Nc2cc([C@H]3CC[C@@H](OC(=O)NC(C)C)C3)[nH]n2)c2c1S(=O)(=O)CC2 [Example 65, (1R,3S)-3-(3-((7-methyl-1,1-dioxido-2,3-dihydrobenzo[b]thiophen-4-yl)amino)-1H-pyrazol-5-yl)cyclopentyl isopropylcarbamate] | 500 to 1000 | 
8 | < 50 | ≤ 500 | < 50 | 50 to 500 | 50 to 500 |  | CC(C)NC(=O)O[C@@H]1CC[C@H](c2cc(Nc3ccc4c(c3)S(=O)(=O)CC4)n[nH]2)C1 [Example 19, (1R,3S)-3-(3-((1,1-dioxido-2,3-dihydrobenzo[b]thiophen-6-yl)amino)-1H-pyrazol-5-yl)cyclopentyl isopropylcarbamate] | ≤ 500 | 
9 | < 50 | ≤ 500 | < 50 | > 1000 | 50 to 500 |  | CC(C)NC(=O)O[C@@H]1CC[C@H](c2cc(Nc3cccc4c3CS(=O)(=O)CC4)n[nH]2)C1 [Example 63, (1R,3S)-3-(3-((2,2-dioxidoisothiochroman-8-yl)amino)-1H-pyrazol-5-yl)cyclopentyl isopropylcarbamate] | ≥ 1000 | 
10 | < 50 |  | < 50 | 50 to 500 | 50 to 500 |  | O=C(NC1CC1)O[C@@H]1CC[C@H](c2cc(Nc3nccc4c3CCS4(=O)=O)n[nH]2)C1 [Example 71, (1R,3S)-3-{5-[(1,1-dioxo-2,3-dihydro-1λ^6-thieno[3,2-c]pyridin-4-yl)amino]-2H-pyrazol-3-yl}cyclopentyl (cyclopropylamino)methanoate] |  | 
11 | 50 to 500 |  | < 50 | > 1000 | > 1000 |  | CC(C)NC(=O)O[C@@H]1CC[C@H](c2cc(Nc3c(F)ccc4c3CCS4(=O)=O)n[nH]2)C1 [Example 52, (1R,3S)-3-(3-((5-fluoro-1,1-dioxido-2,3-dihydrobenzo[b]thiophen-4-yl)amino)-1H-pyrazol-5-yl)cyclopentyl isopropylcarbamate] |  | 
12 | 50 to 500 |  | 50 to 500 | > 1000 | > 1000 |  | CC(C)NC(=O)O[C@@H]1CC[C@H](c2cc(Nc3cccc4c3CS(=O)(=O)N4)n[nH]2)C1 [Example 48, (1R,3S)-3-(3-((2,2-dioxido-1,3-dihydrobenzo[c]isothiazol-4-yl)amino)-1H-pyrazol-5-yl)cyclopentyl isopropylcarbamate] |  | 
13 | > 1000 |  | > 1000 | > 1000 | > 1000 |  | CC(C)NC(=O)O[C@@H]1CC[C@H](c2cc(Nc3cccc4c3S(=O)(=O)CC4)n[nH]2)C1 [Example 35, (1R,3S)-3-{5-[(1,1-dioxo-2,3-dihydro-1λ6-benzo[2,1-b]thiophen-7-yl)amino]-2H-pyrazol-3-yl}cyclopentyl (prop-2-ylamino)methanoate] |  | 
14 | 500 to 1000 |  | 50 to 500 | > 1000 | > 1000 |  | Cc1c([C@@H]2CC[C@H](OC(=O)NC(C)C)C2)n[nH]c1Nc1ccc2c(c1)CCS2(=O)=O (racemic) [Example 24, cis 3-{5-[(1,1-dioxo-2,3-dihydro-1λ6-benzothiophen-5-yl)amino]-4-methyl-1H-pyrazol-3-yl}cyclopentyl (prop-2-ylamino)methanoate] |  | 
15 | 50 to 500 |  | 50 to 500 | > 1000 | > 1000 |  | Cc1c(Nc2ccc3c(c2)CS(=O)(=O)C3)n[nH]c1[C@H]1CC[C@@H](OC(=O)NC(C)(C)C)C1 [Example 44, (1R,3S)-3-{5-[(2,2-dioxo-1,3-dihydro-2%6-benzo[c]thiophen-5-yl)amino]-4-methyl-2H-pyrazol-3-yl}cyclopentyl [(2-methylprop-2-yl)amino]methanoate] |  | 

Row | SMILES | IC50 [1] [nM] | IC50 ([2]; Homo sapiens, OVCAR-3, 168 h) [nM] | IC50 [3] [nM] | IC50 [5] [nM] | IC50 [6] [nM] | IC50 [2] [nM] | IC50 ([4]; Homo sapiens, 168 h) [nM] | IC50 [4] [nM]
16 | CC(C)NC(=O)O[C@@H]1CC[C@H](c2cc(Nc3ccc4c(c3)CCC(=O)N4)[nH]n2)C1 [Example 30, (1R,3S)-3-{5-[(2-oxo-1,2,3,4-tetrahydroquinolin-6-yl)amino]-1H-pyrazol-3-yl}cyclopentyl (prop-2-ylamino)methanoate] | < 50 | 500 to 1000 | < 50 | > 1000 | 50 to 500 |  | ≥ 1000 | 
17 | CC(C)NC(=O)O[C@@H]1CC[C@H](c2cc(Nc3ccc4c(c3)CCC4C#N)n[nH]2)C1 (stereo partly drawn) [Example 29, (1R,3S)-3-{5-[(1-cyano-2,3-dihydro-1H-inden-5-yl)amino]-2H-pyrazol-3-yl}cyclopentyl (prop-2-ylamino)methanoate] | < 50 | 500 to 1000 | < 50 | 50 to 500 | 50 to 500 |  | ≥ 1000 | 
18 | CC(C)NC(=O)O[C@H]1C[C@@H](c2cc(Nc3ccc4c(c3)CS(=O)(=O)C4)n[nH]2)C1 [Example 28, (1s,3s)-3-(3-((2,2-dioxido-1,3-dihydrobenzo[c]thiophen-5-yl)amino)-1H-pyrazol-5-yl)cyclobutyl isopropylcarbamate] | < 50 | ≤ 500 | < 50 | 50 to 500 | < 50 |  | ≤ 500 | 
